In PMC10176470, “Engaging a Non-catalytic Cysteine Residue Drives Potent and Selective Inhibition of Caspase-6” (Journal of the American Chemical Society, 2023):

Columns and labels:
Format in all cases: cell-based
[1] = molecular target: T1, proteins of HEK293T cells transiently overexpressing caspase-6 (Homo sapiens, UniProt P46977); conditions: protein STT3A (P46977)
T1 sequence (P46977 1-705): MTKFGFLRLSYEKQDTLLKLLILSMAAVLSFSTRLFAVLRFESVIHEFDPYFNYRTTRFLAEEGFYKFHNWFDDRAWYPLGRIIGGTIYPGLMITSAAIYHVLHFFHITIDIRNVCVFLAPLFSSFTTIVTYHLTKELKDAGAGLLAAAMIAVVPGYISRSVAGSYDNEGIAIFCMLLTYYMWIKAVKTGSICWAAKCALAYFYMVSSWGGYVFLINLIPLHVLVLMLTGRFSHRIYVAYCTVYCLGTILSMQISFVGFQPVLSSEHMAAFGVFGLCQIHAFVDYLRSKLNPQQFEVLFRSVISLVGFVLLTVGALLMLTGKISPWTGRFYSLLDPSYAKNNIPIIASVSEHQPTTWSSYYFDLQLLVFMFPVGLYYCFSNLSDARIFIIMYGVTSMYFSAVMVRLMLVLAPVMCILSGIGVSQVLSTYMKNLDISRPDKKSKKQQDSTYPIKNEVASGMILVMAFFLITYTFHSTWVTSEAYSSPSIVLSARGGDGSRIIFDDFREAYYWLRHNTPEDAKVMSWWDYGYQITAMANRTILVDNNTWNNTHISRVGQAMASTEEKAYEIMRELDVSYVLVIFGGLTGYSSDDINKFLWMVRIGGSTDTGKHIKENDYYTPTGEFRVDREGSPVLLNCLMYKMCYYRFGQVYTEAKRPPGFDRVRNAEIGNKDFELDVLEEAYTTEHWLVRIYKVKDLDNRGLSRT

[2] = molecular target: proteins of HEK293T cells transiently overexpressing caspase-6 (Homo sapiens, UniProt P21964); conditions: Probe; protein COMT P21964
proteins of HEK293T cells transiently overexpressing caspase-6 (Homo sapiens, UniProt P21964), sequence (P21964 whole entry): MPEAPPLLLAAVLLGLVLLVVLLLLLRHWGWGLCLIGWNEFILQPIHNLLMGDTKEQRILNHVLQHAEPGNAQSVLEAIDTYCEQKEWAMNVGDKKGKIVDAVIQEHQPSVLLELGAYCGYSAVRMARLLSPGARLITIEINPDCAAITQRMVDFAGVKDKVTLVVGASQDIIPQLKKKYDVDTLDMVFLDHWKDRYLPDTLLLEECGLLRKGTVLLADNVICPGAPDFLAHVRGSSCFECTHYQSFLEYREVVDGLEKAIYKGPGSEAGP

[3] = molecular target: proteins of HEK293T cells transiently overexpressing caspase-6 (Homo sapiens, UniProt P06748); conditions: protein NPM1 (P06748)
proteins of HEK293T cells transiently overexpressing caspase-6 (Homo sapiens, UniProt P06748), sequence (P06748 whole entry): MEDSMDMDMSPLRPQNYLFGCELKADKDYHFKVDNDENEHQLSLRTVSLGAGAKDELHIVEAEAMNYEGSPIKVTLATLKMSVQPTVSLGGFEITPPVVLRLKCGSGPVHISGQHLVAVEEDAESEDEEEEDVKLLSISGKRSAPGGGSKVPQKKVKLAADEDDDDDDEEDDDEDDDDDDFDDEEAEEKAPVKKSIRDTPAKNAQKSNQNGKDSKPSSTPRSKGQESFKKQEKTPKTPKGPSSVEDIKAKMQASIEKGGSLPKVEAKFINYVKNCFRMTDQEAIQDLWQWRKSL

[4] = molecular target: proteins of HEK293T cells transiently overexpressing caspase-6 (Homo sapiens, UniProt Q07812); conditions: Probe; protein BAX Q07812
proteins of HEK293T cells transiently overexpressing caspase-6 (Homo sapiens, UniProt Q07812), sequence (Q07812 whole entry): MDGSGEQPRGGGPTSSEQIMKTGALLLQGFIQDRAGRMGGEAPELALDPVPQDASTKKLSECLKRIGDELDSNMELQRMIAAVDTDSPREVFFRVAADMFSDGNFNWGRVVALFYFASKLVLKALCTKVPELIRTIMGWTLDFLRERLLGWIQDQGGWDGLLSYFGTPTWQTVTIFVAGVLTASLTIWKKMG

[5] = molecular target: proteins of HEK293T cells transiently overexpressing caspase-6 (Homo sapiens, UniProt Q01082); conditions: Probe; protein SPTBN1 Q01082
[6] = molecular target: proteins of HEK293T cells transiently overexpressing caspase-6 (Homo sapiens, UniProt P26641); conditions: exp_ref Probe; protein EEF1G (P26641); analysis C6
proteins of HEK293T cells transiently overexpressing caspase-6 (Homo sapiens, UniProt P26641), sequence (P26641 whole entry): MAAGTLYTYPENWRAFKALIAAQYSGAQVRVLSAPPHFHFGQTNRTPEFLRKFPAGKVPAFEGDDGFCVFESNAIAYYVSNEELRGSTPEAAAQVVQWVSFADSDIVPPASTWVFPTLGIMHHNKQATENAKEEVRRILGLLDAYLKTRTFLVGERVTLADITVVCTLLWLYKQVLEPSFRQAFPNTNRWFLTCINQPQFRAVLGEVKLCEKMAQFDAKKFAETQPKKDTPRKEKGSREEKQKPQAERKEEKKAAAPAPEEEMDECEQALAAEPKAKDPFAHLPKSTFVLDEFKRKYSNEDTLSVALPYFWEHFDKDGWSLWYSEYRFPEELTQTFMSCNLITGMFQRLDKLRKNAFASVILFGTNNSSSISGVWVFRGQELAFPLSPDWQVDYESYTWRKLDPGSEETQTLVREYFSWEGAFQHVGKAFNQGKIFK

[7] = molecular target: proteins of HEK293T cells transiently overexpressing caspase-6 (Homo sapiens, UniProt P39687); conditions: exp_ref Probe; protein ANP32A (P39687); analysis C6
proteins of HEK293T cells transiently overexpressing caspase-6 (Homo sapiens, UniProt P39687), sequence (P39687 whole entry): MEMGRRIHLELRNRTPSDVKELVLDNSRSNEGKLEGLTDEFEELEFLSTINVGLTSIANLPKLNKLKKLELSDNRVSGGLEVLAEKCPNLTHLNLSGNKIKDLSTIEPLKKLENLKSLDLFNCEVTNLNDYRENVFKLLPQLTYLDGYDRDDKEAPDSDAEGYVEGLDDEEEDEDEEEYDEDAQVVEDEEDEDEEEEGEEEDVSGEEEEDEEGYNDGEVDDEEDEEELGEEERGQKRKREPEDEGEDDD

[8] = molecular target: proteins of HEK293T cells transiently overexpressing caspase-6 (Homo sapiens, UniProt Q02790); conditions: exp_ref Probe; protein FKBP4 (Q02790); analysis C6
proteins of HEK293T cells transiently overexpressing caspase-6 (Homo sapiens, UniProt Q02790), sequence (Q02790 whole entry): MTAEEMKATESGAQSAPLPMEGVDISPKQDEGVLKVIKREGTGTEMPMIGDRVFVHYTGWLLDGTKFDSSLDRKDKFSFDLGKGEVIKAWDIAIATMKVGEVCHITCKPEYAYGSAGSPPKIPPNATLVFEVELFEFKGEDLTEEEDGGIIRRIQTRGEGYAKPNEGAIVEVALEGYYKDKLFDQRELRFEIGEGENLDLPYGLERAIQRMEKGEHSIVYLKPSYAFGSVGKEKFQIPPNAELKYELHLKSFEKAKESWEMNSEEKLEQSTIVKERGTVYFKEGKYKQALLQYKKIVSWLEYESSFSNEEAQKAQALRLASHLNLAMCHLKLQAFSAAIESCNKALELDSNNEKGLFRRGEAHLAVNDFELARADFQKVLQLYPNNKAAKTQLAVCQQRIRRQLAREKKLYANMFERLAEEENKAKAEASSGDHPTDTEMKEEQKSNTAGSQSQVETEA

[9] = molecular target: proteins of HEK293T cells transiently overexpressing caspase-6 (Homo sapiens, UniProt P62701); conditions: exp_ref Probe; protein RPS4X (P62701); analysis C6
[10] = molecular target: proteins of HEK293T cells transiently overexpressing caspase-6 (Homo sapiens, UniProt Q99729); conditions: Probe; protein HNRNPAB Q99729
proteins of HEK293T cells transiently overexpressing caspase-6 (Homo sapiens, UniProt Q99729), sequence (Q99729 whole entry): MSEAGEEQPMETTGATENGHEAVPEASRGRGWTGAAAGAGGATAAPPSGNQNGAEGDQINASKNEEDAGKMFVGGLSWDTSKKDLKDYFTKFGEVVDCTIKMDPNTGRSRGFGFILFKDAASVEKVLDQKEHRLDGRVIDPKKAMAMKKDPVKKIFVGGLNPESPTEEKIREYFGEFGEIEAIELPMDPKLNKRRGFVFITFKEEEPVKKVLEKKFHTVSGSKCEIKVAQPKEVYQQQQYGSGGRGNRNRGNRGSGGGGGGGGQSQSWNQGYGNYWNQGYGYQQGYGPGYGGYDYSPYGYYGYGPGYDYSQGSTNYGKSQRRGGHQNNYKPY

[11] = molecular target: proteins of HEK293T cells transiently overexpressing caspase-6 (Homo sapiens, UniProt P47756); conditions: Probe; protein CAPZB P47756
proteins of HEK293T cells transiently overexpressing caspase-6 (Homo sapiens, UniProt P47756), sequence (P47756 whole entry): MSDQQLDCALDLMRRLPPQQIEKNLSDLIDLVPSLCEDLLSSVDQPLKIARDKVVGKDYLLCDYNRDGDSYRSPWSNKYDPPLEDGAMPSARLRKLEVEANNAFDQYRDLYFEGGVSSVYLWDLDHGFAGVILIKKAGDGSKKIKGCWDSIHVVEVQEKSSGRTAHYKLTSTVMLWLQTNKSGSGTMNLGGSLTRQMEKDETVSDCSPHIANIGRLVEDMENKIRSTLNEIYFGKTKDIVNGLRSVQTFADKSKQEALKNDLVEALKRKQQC

[12] = molecular target: proteins of HEK293T cells transiently overexpressing caspase-6 (Homo sapiens, UniProt P10809); conditions: protein HSPD1 (P10809)
proteins of HEK293T cells transiently overexpressing caspase-6 (Homo sapiens, UniProt P10809), sequence (P10809 27-573): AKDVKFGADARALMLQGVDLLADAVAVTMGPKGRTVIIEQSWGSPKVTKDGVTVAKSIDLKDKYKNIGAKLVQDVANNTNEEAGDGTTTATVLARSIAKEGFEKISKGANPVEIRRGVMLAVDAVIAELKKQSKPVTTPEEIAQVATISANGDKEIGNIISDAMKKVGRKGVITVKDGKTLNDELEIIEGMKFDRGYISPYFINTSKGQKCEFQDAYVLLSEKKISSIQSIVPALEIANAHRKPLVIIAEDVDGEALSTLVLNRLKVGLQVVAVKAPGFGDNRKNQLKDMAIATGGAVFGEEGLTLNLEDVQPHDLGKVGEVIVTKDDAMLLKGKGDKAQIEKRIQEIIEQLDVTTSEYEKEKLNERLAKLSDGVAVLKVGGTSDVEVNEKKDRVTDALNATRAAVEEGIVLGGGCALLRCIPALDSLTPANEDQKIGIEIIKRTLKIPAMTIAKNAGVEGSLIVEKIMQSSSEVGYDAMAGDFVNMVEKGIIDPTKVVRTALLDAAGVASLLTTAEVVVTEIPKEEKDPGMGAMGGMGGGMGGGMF

[13] = molecular target: proteins of HEK293T cells transiently overexpressing caspase-6 (Homo sapiens, UniProt P61619); conditions: exp_ref Probe; protein SEC61A1 (P61619); analysis C6
proteins of HEK293T cells transiently overexpressing caspase-6 (Homo sapiens, UniProt P61619), sequence (P61619 whole entry): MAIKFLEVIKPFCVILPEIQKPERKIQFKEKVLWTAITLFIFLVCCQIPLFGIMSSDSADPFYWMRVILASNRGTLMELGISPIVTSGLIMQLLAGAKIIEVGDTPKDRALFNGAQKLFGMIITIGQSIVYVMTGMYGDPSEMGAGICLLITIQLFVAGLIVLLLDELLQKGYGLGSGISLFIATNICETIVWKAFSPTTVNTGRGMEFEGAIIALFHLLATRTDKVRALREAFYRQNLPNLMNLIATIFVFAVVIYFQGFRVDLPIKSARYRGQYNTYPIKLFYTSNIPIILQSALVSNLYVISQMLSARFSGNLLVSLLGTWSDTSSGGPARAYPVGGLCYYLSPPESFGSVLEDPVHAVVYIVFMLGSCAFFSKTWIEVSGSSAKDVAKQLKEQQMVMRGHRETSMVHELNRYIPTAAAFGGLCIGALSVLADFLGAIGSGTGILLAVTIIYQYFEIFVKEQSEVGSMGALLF

[14] = molecular target: T2, proteins of HEK293T cells transiently overexpressing caspase-6 (Homo sapiens, UniProt Q96RQ3)
T2 sequence (Q96RQ3 42-725): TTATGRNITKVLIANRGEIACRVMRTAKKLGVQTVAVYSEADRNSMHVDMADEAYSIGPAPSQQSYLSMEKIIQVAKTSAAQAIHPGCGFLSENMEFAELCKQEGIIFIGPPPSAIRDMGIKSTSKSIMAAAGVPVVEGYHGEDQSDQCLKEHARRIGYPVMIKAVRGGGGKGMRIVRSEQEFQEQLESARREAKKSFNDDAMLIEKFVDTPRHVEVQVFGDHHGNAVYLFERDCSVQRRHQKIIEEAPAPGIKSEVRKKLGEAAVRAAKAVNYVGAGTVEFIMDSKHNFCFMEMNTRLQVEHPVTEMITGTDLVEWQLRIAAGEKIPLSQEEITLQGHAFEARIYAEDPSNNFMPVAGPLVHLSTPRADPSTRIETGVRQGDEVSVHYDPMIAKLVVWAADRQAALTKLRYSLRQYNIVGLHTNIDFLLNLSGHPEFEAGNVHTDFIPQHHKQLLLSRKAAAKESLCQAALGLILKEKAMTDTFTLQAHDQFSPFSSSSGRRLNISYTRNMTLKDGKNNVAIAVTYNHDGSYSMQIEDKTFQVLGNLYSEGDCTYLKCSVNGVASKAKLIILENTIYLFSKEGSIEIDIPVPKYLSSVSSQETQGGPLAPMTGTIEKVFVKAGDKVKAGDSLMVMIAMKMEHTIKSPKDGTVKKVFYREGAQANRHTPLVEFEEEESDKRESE

[15] = molecular target: proteins of HEK293T cells transiently overexpressing caspase-6 (Homo sapiens, UniProt P08133); conditions: exp_ref Probe; protein ANXA6 (P08133); analysis C6
proteins of HEK293T cells transiently overexpressing caspase-6 (Homo sapiens, UniProt P08133), sequence (P08133 whole entry): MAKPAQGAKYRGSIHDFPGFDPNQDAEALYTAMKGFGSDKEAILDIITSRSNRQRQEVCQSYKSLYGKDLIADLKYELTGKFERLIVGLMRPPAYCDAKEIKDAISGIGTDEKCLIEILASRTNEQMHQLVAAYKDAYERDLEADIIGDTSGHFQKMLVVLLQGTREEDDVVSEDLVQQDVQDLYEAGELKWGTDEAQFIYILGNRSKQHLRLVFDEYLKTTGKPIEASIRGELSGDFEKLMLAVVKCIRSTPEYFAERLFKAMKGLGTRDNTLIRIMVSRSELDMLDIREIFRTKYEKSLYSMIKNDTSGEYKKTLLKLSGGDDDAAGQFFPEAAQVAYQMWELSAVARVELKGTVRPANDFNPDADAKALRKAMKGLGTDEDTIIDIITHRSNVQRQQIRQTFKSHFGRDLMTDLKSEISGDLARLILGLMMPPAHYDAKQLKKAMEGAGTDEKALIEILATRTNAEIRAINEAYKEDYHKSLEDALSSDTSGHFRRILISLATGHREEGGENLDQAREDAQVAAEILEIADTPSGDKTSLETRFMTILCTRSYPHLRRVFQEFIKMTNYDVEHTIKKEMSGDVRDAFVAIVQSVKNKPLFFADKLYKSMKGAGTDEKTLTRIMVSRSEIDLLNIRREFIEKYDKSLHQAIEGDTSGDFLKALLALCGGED

C#CCOc1ccc([C@@H]2C[C@@H](C(=O)Nc3ccc(OC(F)(F)F)cc3)CN(S(=O)(=O)C=C)C2)cc1 (relative stereo) [13-t]
enrich.exp.med.lin [1]: 3.857 | enrich.exp.med.log2 [1]: 1.948 | enrich.exp.med ([1]; exp_ref Probe, analysis C6): 1.948 | enrich.exp.med [2]: -3.436 | enrich.exp.med ([3]; exp_ref Probe, analysis C6): -0.3931 | enrich.exp.med.lin [3]: 0.7615 | enrich.exp.med.log2 [3]: -0.3931 | enrich.exp.med [4]: -2.1832 | enrich.exp.med [5]: -1.031 | enrich.exp.med [6]: 0.5675 | enrich.exp.med [7]: 0.2226 | enrich.exp.med [8]: 0.8165 | enrich.exp.med [9]: 0.8885 | enrich.exp.med [10]: -0.4603 | enrich.exp.med [11]: -0.5086 | enrich.exp.med ([12]; exp_ref Probe, analysis C6): 0.7989 | enrich.exp.med.lin [12]: 1.7398 | enrich.exp.med.log2 [12]: 0.7989 | enrich.exp.med [13]: 0.5807 | enrich.exp.med ([14]; Probe, protein MCCC1 Q96RQ3): -2.028 | enrich.exp.med.lin ([14]; protein MCCC1 (Q96RQ3)): 0.2451 | enrich.exp.med.log2 ([14]; protein MCCC1 (Q96RQ3)): -2.028 | enrich.exp.med [15]: 0.01987
